These results are taken from publication PMC10726920 (Cancer Medicine, 2023).

“And” between values parts separate entries of the source, which are not always exact repeats. Equal values may be shown once.

Series [1] relates to phospho-4EBP1 (direct mTORC1 substrate) in ALL sample. The experiment in a line: Immunoblotting of pretreatment ALL specimen treated ex vivo 48 h with sapanisertib. The series is classed as cell-based, human. Conditions: 5 μM Q‐VD‐OPh. An excerpt: (§1) FIGURE 2 Effect of MLN0128 concentrations on mTOR‐associated phosphorylation in vitro, ex vivo, and in the context of the present trial. […] (C) Samples harvested from the indicated patients prior to treatment (lanes 1, 4, 6, 8, and 10), on Day 8 prior to therapy (lanes 2, 5, 7, 9, and 11), or at the time of removal from study after 6 weeks (lane 3) were subjected to SDS‐PAGE and blotting for the indicated antigens. Jurkat cells (lane 12) were included in the blot because they were known to be positive for all analytes.[29] The housekeeping protein nucleolin (NCL) served as a loading control.
Cells were isolated from bone marrow or blood samples using Histopaque-1077 (Millipore-Sigma, St. Louis, MO) step gradients. […] Cells for ex vivo drug exposure were resuspended at a concentration of 1 x 10^6 cells/ml in RPMI 1640 medium containing 10% (v/v) heat-inactivated fetal bovine serum, 50 U/ml penicillin G, 50 µg/ml streptomycin, and 1 mM glutamine. […]

The subject of series [2] is relapsed/refractory acute lymphoblastic leukemia. The experiment in a line: Response (modified IWG criteria) and overall survival, Phase II study NCI-9775. The series is classed as in vivo, human. As to the method: Evaluable patients for response include all patients who had measurable disease present at baseline, began treatment, and had their disease re‐evaluated. Response was assessed by bone marrow aspirates and biopsies performed every 2 months (mandated at the end of Cycle 2, Cycle 4, and Cycle 6). The best responses were captured as overall responses at any time point. Response was evaluated based on modified response criteria by the International Working Group (IWG) recommendations for acute myeloid leukemia (Table S1).[33]
This was a phase II trial designed using a Simon design with an interim analysis to evaluate efficacy. Efficacy (success) was defined as a complete response (CR or CR incomplete (i)). All patients meeting the eligibility criteria who signed a consent form and began treatment were deemed evaluable for toxicity. […] Thus, this regimen was to be considered ineffective if the success rate was 10% or less (null hypothesis), while the smallest success rate that would warrant subsequent studies was 30% (i.e., alternate research hypothesis). With a maximum of 26 evaluable patients, this trial had 85% power to detect a CR/CRi rate of 30% or greater (vs. 10% or less) with a one‐sided Type I error of 0.09. This trial was designed with a futility analysis after enrollment of 11 patients; if there were one or fewer successes observed in these first 11 patients, the regimen would be considered ineffective, and the study terminated. If two or more successes were observed, the enrollment would continue to a total of 26 evaluable patients. In the final analysis, if five or more of these 26 evaluable patients had achieved a CR or CRi, this would be considered sufficient evidence of promising activity in this patient population. Otherwise, if four or fewer CR/CRi events were observed, this regimen would not warrant further evaluation in this population.
The primary endpoint was the proportion of successes, which was estimated by the number of successes divided by the total number of evaluable patients. Secondary endpoints of duration of response (CR or CRi) and overall survival (OS) were evaluated using Kaplan–Meier techniques; the frequency of proceeding to allogeneic stem cell transplant after achieving response and adverse events (AEs), as evaluated using reported the NCI Common Terminology Criteria for Adverse Events (CTCAE) version 4.0, were presented using descriptive statistics.

Series [3] has as its system BCR‐ABL‐positive ALL. Details: method as in PMID 23090679. Conditions: cited from earlier work.
The test system of series [4] is human ALL lines and clinical ALL samples. Set-up: method as in PMID 26917778. Conditions: cited from earlier work.
For series [5], the system named is patients with advanced multiple myeloma. Set-up: method as in PMID 26800393. Conditions: orally daily; cited from earlier work.
The test system of series [6] is human ALL cell line xenografts. Details: method as in PMID 26917778. Conditions: cited from earlier work.
Series [7] deals with patients with advanced solid malignancies. Conditions: original drug formulation, daily dosing; cited from earlier work.
For series [8], the system named is phospho-4EBP1 (direct mTORC1 substrate) in Jurkat ALL cell line. The experiment in a line: Immunoblotting of Jurkat cells treated 24 h with sapanisertib. The series is classed as cell-based, human.
Text: as §1
After samples were dialyzed sequentially into 4 M urea and 0.1% (w/v) SDS, lyophilized and reconstituted in SDS-sample buffer consisting of 4 M urea, 2% (w/v) SDS, […] (pH 6.8 at 4 °C), 10 mM EDTA, and 1% (w/v/) 2-mercaptoethanol, aliquots containing […] of total cellular protein were subjected to SDS-PAGE on gels containing 5-20% polyacrylamide gradients, transferred to nitrocellulose, and probed with antibodies as previously described ^34, 35. […]

Take `CC(C)n1nc(-c2ccc3oc(N)nc3c2)c2c(N)ncnc21` [sapanisertib]: the “concentration diminishing phosphorylation of 4EBP1 without change in total 4EBP1” value in series [1] was 62.5 to 200 nM. Moreover, in series [2] (3 mg daily 21 of 28 days), the “CR or CRi” value was “No patient”. In series [2] (51.0‐NA 95% CI), this compound came in with a Median survival of 62 days. In addition, in series [2] (in vivo), the “best response stable disease, patients” value is 2 patients and 3 patients; the “best response stable disease, percent of patients” value is 12.5% and 19%; the “disease progression, patients” value worked out at 6 patients; the “disease progression, percent of patients” value was found to be 38%. Also, in series [2] (in vivo), the “not evaluable because of early discontinuation, patients” value came out at 7 patients and the “not evaluable because of early discontinuation, percent” value is given as 44%. In addition, the “growth of syngeneic mouse model of BCR‐ABL‐positive ALL” value in series [3] is “inhibited growth”. In series [4], the “cytotoxic effects compared with rapamycin” value was “greater cytotoxic effects than rapamycin”. Moreover, in series [5], the MTD is listed as 6 mg. In addition, the “growth of human ALL cell line xenografts” value in series [6] is listed as “inhibited growth”. Moreover, the “maximum tolerated dose (MTD)” value in series [7] is on record as 6 mg/day. In addition, the “concentration diminishing phosphorylation of 4EBP1 without change in total 4EBP1” value in series [8] lay in the range of 62.5 to 200 nM.
